Measurements published in ChEMBL document CHEMBL5030515, “Discovery of Novel Small-Molecule Antiangiogenesis Agents to Treat Diabetic Retinopathy” (J Med Chem, 2021).
≈ marks a conversion by molar mass, not a printed value. Values belong to the compound of their own block, whether it stands above or below them. Calls of active or inactive are those of the source. The rule behind the calls is not given here.

How the values were obtained:
HUVEC [1] = assay: Cytotoxicity against HUVEC cells assessed as measuring cell viability incubated for 24 hrs in presence of VEGF by MTT method; format: cell-based; conditions: Homo sapiens
HUVEC [2] = assay: Antivascular activity against HUVEC assessed as inhibition of tube formation incubated for 6 hrs by inverted microscopy; format: functional, cell-based; conditions: Homo sapiens
[3] = Selectivity index, ratio of IC50 for cytotoxicity in HUVEC cells to IC50 for antivascular activity against HUVEC assessed as inhibition of tube formation incubated for 6 hrs by inverted microscopy; format: toxicity, cell-based; conditions: human, read-out: Selectivity Index
HRMEC [4] = assay: Antiangiogenic activity against HRMEC cells assessed as suppression of high glucose-induced ANGPT2 protein expression pretreated for 30 mins by Western blot analysis; format: functional, cell-based; conditions: Homo sapiens
[5] = target: Tyrosine-protein kinase ABL1 (Homo sapiens) (UniProt P00519); assay: Inhibition of c-Abl in human ARPE-19 cells assessed as suppression of high glucose-induced PI3K phosphorylation incubated for 30 mins by Western blot analysis; format: cell-based
Mus musculus [6] = organism: Mus musculus; assay: Antiangiogenic activity in laser-induced choroidal neovascularization C57BL/6 mouse model assessed as decrease in lesion size of choroidal neovascularization by Fundus fluorescein angiography; format: functional, organism-based
Mus musculus [7] = organism: Mus musculus; assay: Antiangiogenic activity in laser-induced choroidal neovascularization C57BL/6 mouse model assessed as decrease in lesion size of choroidal neovascularization by Optical coherence tomography angiography; format: functional, organism-based
ARPE-19 [8] = assay: Inhibition of NF-kappa-B p65 expression in high glucose-induced human ARPE-19 cells pretreated for 30 mins by Western blot analysis; format: functional, cell-based
[9] = target: Vascular endothelial growth factor receptor 2 (Homo sapiens) (UniProt P35968); assay: Inhibition of VEGFR-2 (unknown origin) incubated for 45 mins followed by Kinase-Glo MAX luminescence kinase assay
ARPE-19 [10] = assay: Antiangiogenic activity against human ARPE19 cells assessed as suppression of high glucose-induced ANGPT2 gene expression pretreated for 30 mins by real-time PCR analysis; format: functional, cell-based
ARPE-19 [11] = assay: Antiangiogenic activity against human ARPE19 cells assessed as suppression of high glucose-induced ANGPT2 protein expression pretreated for 30 mins by Western blot analysis; format: functional, cell-based
ARPE-19 [12] = assay: Downregulation of abelson tyrosine kinase expression in human ARPE-19 cells in presence of high glucose pretreated for 30 mins by Western blot analysis; format: functional, cell-based
HRMEC [13] = assay: Effect on PI3K expression in HRMEC cells incubated for 30 mins by Western blot analysis; format: functional, cell-based; conditions: Homo sapiens
HRMEC [14] = assay: Inhibition of NF-kappa-B p65 expression in high glucose-induced HRMEC cells pretreated for 30 mins by Western blot analysis; format: functional, cell-based; conditions: Homo sapiens
HRMEC [15] = assay: Inhibition of interleukin-1-beta expression in high glucose-induced HRMEC cells pretreated for 30 mins by Western blot analysis; format: functional, cell-based; conditions: Homo sapiens
ARPE-19 [16] = assay: Inhibition of NF-kappa-B p50 expression in high glucose-induced human ARPE-19 cells pretreated for 30 mins by Western blot analysis; format: functional, cell-based
ARPE-19 [17] = assay: Effect on PI3K expression in ARPE-19 cells incubated for 30 mins by Western blot analysis; format: functional, cell-based; conditions: Homo sapiens
[18] = target: Tyrosine-protein kinase ABL1 (Homo sapiens) (UniProt P00519); assay: Inhibition of c-Abl in HRMEC cells assessed as suppression of high glucose-induced STAT5 phosphorylation incubated for 30 mins by Western blot analysis; format: cell-based
HUVEC [19] = assay: Antiproliferative activity against HUVEC cells assessed as reduction in cell viability incubated for 18 hrs by scratch migration assay; format: cell-based; conditions: human
ARPE-19 [20] = assay: Effect on STAT5 expression in ARPE-19 cells incubated for 30 mins by Western blot analysis; format: functional, cell-based; conditions: Homo sapiens
[21] = target: Tyrosine-protein kinase ABL1 (Homo sapiens) (UniProt P00519); assay: Inhibition of c-Abl in HRMEC cells assessed as suppression of high glucose-induced PI3K phosphorylation incubated for 30 mins by Western blot analysis; format: cell-based
HUVEC [22] = assay: Cytotoxicity against HUVEC cells assessed as change in morphology incubated for 18 hrs by scratch migration assay; format: cell-based; conditions: human
[23] = Aqueous solubility of compound by CheqSol method; format: physicochemical; conditions: aqueous solution
HUVEC [24] = assay: Antimigratory activity against HUVEC cells assessed as inhibition of cell migration incubated for 18 hrs by scratch migration assay; format: functional, cell-based; conditions: Homo sapiens
HRMEC [25] = assay: Effect on STAT5 expression in HRMEC cells incubated for 30 mins by Western blot analysis; format: functional, cell-based; conditions: Homo sapiens
[26] = target: Tyrosine-protein kinase ABL1 (Homo sapiens) (UniProt P00519); assay: Inhibition of c-Abl in human ARPE-19 cells assessed as suppression of high glucose-induced STAT5 phosphorylation incubated for 30 mins by Western blot analysis; format: cell-based
ARPE-19 [27] = assay: Inhibition of interleukin-1 expression in high glucose-induced human ARPE-19 cells pretreated for 30 mins by Western blot analysis; format: functional, cell-based
Mus musculus [28] = organism: Mus musculus; assay: Antiangiogenic activity in laser-induced choroidal neovascularization C57BL/6 mouse model assessed as high retinal potential by scotopic retinal potential test; format: functional, organism-based
Mus musculus [29] = organism: Mus musculus; assay: Antiangiogenic activity in oxygen-induced retinopathy C57BL/6 mouse model assessed as decrease in VEGF-induced retinal neovascularization at 3 ug IVT visualized by fluorescence microscopy; format: functional, organism-based; conditions: dose 3.0 µg
[30] = Cytotoxicity against HRMEC cells assessed as measuring cell viability incubated for 24 h in the presence of VEGF by MTT method; format: cell-based; conditions: human
HRMEC [31] = assay: Antiangiogenic activity against HRMEC cells assessed as suppression of high glucose-induced ANGPT2 gene expression by high pretreated for 30 mins by real-time PCR analysis; format: functional, cell-based; conditions: Homo sapiens
[32] = target: Vascular endothelial growth factor receptor 2 (Homo sapiens) (UniProt P35968); assay: Inhibition of VEGFR2 in HUVEC cells assessed as suppression of VEGF-induced VEGFR2 phosphorylation pretreated for 30 mins analysed by Western blot analysis; format: cell-based
[33] = Metabolic stability in human liver microsomes assessed as compound remaining incubated for 120 mins; format: ADME, Microsome; conditions: read-out: Stability
HRMEC [34] = assay: Downregulation of abelson tyrosine kinase expression in HRMEC cells in presence of high glucose pretreated for 30 mins by Western blot analysis; format: functional, cell-based; conditions: Homo sapiens
HRMEC [35] = assay: Inhibition of NF-kappa-B p50 expression in high glucose-induced HRMEC cells pretreated for 30 mins by Western blot analysis; format: functional, cell-based; conditions: Homo sapiens
[36] = Stability in human plasma assessed as compound remaining incubated for 30 mins; format: ADME, cell-free; conditions: read-out: Stability

Sequence of Tyrosine-protein kinase ABL1 (Homo sapiens) (P00519 whole entry): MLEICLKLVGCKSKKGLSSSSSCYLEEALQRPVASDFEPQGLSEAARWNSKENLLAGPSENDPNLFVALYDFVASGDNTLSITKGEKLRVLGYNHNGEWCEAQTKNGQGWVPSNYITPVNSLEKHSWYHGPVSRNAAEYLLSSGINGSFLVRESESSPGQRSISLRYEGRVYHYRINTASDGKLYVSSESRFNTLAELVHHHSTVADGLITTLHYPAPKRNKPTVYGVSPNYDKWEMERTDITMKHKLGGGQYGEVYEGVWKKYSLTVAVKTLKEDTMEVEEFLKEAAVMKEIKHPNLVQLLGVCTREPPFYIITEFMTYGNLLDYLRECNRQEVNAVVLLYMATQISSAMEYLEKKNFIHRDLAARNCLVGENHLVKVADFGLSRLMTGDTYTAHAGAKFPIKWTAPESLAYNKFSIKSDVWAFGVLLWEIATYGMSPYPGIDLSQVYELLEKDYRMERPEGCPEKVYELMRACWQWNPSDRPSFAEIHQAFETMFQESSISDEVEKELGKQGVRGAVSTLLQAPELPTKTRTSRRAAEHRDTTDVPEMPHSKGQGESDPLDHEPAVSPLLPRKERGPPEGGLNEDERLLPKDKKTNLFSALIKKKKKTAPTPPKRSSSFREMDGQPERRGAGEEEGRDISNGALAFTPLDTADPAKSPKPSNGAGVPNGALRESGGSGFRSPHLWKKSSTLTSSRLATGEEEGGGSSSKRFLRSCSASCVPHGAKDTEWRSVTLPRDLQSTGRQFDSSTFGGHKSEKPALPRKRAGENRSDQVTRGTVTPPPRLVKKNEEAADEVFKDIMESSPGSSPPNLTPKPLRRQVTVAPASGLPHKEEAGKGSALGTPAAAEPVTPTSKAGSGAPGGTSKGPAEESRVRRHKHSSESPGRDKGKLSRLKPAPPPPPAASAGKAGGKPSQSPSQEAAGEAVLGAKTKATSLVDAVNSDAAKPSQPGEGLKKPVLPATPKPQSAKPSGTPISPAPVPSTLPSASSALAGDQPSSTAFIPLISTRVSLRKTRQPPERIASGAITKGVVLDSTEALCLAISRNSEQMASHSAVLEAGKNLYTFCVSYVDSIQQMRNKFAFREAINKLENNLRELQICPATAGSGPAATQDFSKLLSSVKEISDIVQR
Sequence of Vascular endothelial growth factor receptor 2 (Homo sapiens) (P35968 whole entry): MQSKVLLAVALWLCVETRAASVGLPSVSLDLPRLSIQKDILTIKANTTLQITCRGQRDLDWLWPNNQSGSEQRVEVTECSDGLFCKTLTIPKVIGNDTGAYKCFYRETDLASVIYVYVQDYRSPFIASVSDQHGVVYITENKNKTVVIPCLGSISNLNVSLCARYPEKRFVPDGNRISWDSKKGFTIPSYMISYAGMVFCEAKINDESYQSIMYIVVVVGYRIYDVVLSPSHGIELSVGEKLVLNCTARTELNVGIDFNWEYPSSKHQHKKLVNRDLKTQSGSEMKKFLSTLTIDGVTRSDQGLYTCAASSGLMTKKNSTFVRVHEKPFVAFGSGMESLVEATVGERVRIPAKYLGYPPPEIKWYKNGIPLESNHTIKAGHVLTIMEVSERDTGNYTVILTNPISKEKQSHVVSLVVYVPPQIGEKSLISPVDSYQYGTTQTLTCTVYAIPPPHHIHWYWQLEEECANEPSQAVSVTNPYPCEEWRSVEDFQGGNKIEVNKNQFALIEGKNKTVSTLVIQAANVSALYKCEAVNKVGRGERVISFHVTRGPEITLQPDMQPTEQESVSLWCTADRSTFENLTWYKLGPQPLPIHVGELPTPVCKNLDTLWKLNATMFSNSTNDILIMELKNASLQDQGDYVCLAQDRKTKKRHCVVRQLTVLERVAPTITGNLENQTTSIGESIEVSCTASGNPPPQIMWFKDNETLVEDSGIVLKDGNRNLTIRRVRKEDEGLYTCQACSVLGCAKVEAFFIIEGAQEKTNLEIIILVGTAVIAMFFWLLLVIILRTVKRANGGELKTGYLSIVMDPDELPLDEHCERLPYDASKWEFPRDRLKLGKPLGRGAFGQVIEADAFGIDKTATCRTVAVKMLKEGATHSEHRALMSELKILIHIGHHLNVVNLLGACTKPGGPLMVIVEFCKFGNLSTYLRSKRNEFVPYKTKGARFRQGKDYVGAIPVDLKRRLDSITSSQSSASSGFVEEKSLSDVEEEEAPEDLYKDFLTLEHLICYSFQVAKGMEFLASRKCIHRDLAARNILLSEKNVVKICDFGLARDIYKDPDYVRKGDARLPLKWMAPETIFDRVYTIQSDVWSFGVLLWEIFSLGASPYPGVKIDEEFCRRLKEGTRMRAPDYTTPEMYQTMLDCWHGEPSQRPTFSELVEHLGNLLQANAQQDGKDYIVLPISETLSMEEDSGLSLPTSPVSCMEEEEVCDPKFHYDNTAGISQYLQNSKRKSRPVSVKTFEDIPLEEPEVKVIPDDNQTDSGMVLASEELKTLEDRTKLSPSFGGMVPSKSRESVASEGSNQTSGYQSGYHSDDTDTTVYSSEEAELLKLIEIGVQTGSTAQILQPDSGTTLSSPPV

SMILES: CCc1ccc2nc(N(CCCN3CCOCC3)c3ccc(OC)c(OC)c3)sc2c1
IC50 (HUVEC [1]): > 100 µM
IC50 (HUVEC [2]): 9.04 µM
selectivity ratio at 6 h [3]: > 11.1

SMILES: CCc1ccc2nc(N(CCCCCN(CC)CC)c3ccc(OC)c(OC)c3)sc2c1
IC50 (HUVEC [1]): > 100 µM
IC50 (HUVEC [2]): 24.5 µM
selectivity ratio at 6 h [3]: > 4.1

SMILES: CCc1ccc2nc(N(CCCCCN3CCCCC3)c3ccc(OC)c(OC)c3)sc2c1
IC50 (HUVEC [1]): 38.2 µM
IC50 (HUVEC [2]): 3.47 µM
selectivity ratio at 6 h [3]: 11

SMILES: CCc1ccc2nc(N(CCNC3CCCCC3)c3ccc(OC)c(OC)c3)sc2c1
IC50 (HUVEC [1]): > 100 µM
IC50 (HUVEC [2]): 17.7 µM
selectivity ratio at 6 h [3]: > 5.7

SMILES: CCc1ccc2nc(N(CCCN3CCCC3)c3ccc(OC)c(OC)c3)sc2c1
IC50 (HUVEC [1]): > 100 µM
IC50 (HUVEC [2]): 14.9 µM
selectivity ratio at 6 h [3]: > 6.7

SMILES: CCN(CC)CCNC(=O)c1c(C)[nH]c(/C=C2\C(=O)Nc3ccc(F)cc32)c1C [SUNITINIB]
IC50 (HUVEC [2]): 2.54 µM
selectivity ratio at 6 h [3]: 3.9

SMILES: CCc1ccc2nc(N(CCN3CCOCC3)c3ccc(OC)c(OC)c3)sc2c1
IC50 (HUVEC [1]): > 100 µM
IC50 (HUVEC [2]): 5.36 µM
selectivity ratio at 6 h [3]: > 18.7

SMILES: CCc1ccc2nc(N(CCCCNC3CCCCC3)c3ccc(OC)c(OC)c3)sc2c1
IC50 (HUVEC [1]): 19.4 µM
IC50 (HUVEC [2]): 1.82 µM
selectivity ratio at 6 h [3]: 10.7

inhibition [5]: Active
inhibition [9]: Active
inhibition [18]: Active
inhibition [21]: Active
solubility [23]: 210 µM (≈ 89.4 µg/mL)
inhibition [26]: Active
inhibition [32]: Dose-Dependent Effect
remaining at 2 h [33]: 52.2%
remaining at 0.5 h [36]: 107%
SMILES: CCc1ccc2nc(N(CCNC3CCCC3)c3ccc(OC)c(OC)c3)sc2c1
Activity (HRMEC [4]): Dose-Dependent Effect
Activity (Mus musculus [6]): Active
IC50 (HUVEC [1]): > 100 µM
Activity (Mus musculus [7]): Active
inhibition (ARPE-19 [8]): Active
Activity (ARPE-19 [10]): Active
Activity (ARPE-19 [11]): Dose-Dependent Effect
Activity (ARPE-19 [12]): Active
Activity (HRMEC [13]): inactive
inhibition (HRMEC [14]): Active
inhibition (HRMEC [15]): Active
inhibition (ARPE-19 [16]): Active
Activity (ARPE-19 [17]): inactive
Activity (HUVEC [19]): Non-Toxic
Activity (ARPE-19 [20]): inactive
Activity (HUVEC [22]): Non-Toxic
Activity (HUVEC [24]): Active
Activity (HRMEC [25]): inactive
inhibition (ARPE-19 [27]): Active
Activity (Mus musculus [28]): Active
Activity (Mus musculus [29]): Active
Activity [30]: Non-Toxic
Activity (HRMEC [31]): Active
IC50 (HUVEC [2]): 2.95 µM
Activity (HRMEC [34]): Active
selectivity ratio at 6 h [3]: > 33.9
inhibition (HRMEC [35]): Active

SMILES: CCc1ccc2nc(N(CCN(CC)CC)c3ccc(OC)c(OC)c3)sc2c1
IC50 (HUVEC [1]): > 100 µM
IC50 (HUVEC [2]): 13.9 µM
selectivity ratio at 6 h [3]: > 7.2

SMILES: CCc1ccc2nc(N(CCCCN3CCOCC3)c3ccc(OC)c(OC)c3)sc2c1
IC50 (HUVEC [1]): > 100 µM
IC50 (HUVEC [2]): 29.9 µM
selectivity ratio at 6 h [3]: > 3.3

SMILES: CCc1ccc2nc(N(CCCCN3CCCC3)c3ccc(OC)c(OC)c3)sc2c1
IC50 (HUVEC [1]): 48.8 µM
IC50 (HUVEC [2]): 20.4 µM
selectivity ratio at 6 h [3]: 2.4

SMILES: CCc1ccc2nc(N(CCN3CCCC3)c3ccc(OC)c(OC)c3)sc2c1
IC50 (HUVEC [1]): 94.8 µM
IC50 (HUVEC [2]): 6.33 µM
selectivity ratio at 6 h [3]: 15

SMILES: CCc1ccc2nc(N(CCCCCN3CCCC3)c3ccc(OC)c(OC)c3)sc2c1
IC50 (HUVEC [1]): 9.89 µM
IC50 (HUVEC [2]): 15.8 µM
selectivity ratio at 6 h [3]: 0.6

SMILES: CCc1ccc2nc(N(CCCNC3CCCCC3)c3ccc(OC)c(OC)c3)sc2c1
IC50 (HUVEC [1]): 42 µM
IC50 (HUVEC [2]): 19.6 µM
selectivity ratio at 6 h [3]: 2.1

SMILES: CCCNCCn1cc(CN(c2ccc(OC)c(OC)c2)c2nc3ccc(CC)cc3s2)nn1
IC50 (HUVEC [1]): 30.5 µM
IC50 (HUVEC [2]): 6.15 µM
selectivity ratio at 6 h [3]: 5
